Where a name gives a salt, the structure may show the parent alone. Read-outs that look alike come from different tables or passages of the source.

For test [1], the target named is T1, human CYP17 (Homo sapiens, UniProt P05093).
T1 construct: made in house; host or cells: E. coli pJL17/OR (membrane fraction)
T1 sequence (P05093 1-508): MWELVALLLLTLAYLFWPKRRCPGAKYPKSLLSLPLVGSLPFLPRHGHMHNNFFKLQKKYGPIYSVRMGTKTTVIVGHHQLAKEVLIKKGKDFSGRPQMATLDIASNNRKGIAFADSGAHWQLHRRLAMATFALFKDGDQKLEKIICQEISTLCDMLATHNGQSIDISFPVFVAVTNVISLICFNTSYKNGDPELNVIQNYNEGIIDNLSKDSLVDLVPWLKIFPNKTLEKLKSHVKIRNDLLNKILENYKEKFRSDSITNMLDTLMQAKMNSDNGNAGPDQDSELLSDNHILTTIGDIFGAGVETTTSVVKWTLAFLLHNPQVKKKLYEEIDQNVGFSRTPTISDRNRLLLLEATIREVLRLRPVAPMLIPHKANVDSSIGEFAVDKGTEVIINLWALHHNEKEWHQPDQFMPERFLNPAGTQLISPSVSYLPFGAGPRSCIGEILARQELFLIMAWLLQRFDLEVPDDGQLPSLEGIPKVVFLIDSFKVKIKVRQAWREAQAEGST
Kind of test: Percent inhibition of CYP17 (membrane fraction of E. coli pJL17/OR). The class given is biochemical. The conditions noted are these: E. coli which expresses human CYP17, 5 mg/ml protein, progesterone substrate 2.5 μM, inhibitor 2.5 μM; for inhibition at 2.5 µM: read-out: % Inhibition human CYP17. The method, then:
The recombinantly altered E. coli strain pJL17/OR, in which human CYP17 and rat NADPH-P450-reductase were coexpressed, was grown and stored according to the method of Ehmer et al. (Ehmer, P. B. et al., J. Steroid Biochem. Mol. Biol. 75: 57-63 (2000)). For isolating the membrane fraction, 5 ml of the bacterial cell suspension with an OD578 of 50 was washed with phosphate buffer (0.05 M; pH 7.4; 1 mM MgCl2; 0.1 mM EDTA and 0.1 mM DTT). The bacteria were removed by centrifugation and resuspended in 10 ml of ice cold TES buffer (0.1 M tris-acetate; pH 7.8; 0.5 mM EDTA; 0.5 M sucrose). Four milligrams of lysozyme in 10 ml of ice cold water was added to obtain a final concentration of 0.2 mg/ml. This was followed by incubation for 30 minutes under continued shaking on ice. The spheroblasts were obtained by a renewed centrifugation step at 12,000 g for 10 min and again resuspended in 3 ml of ice cold phosphate buffer (composition see above, additionally 0.5 mM PMSF).
After freezing and thawing, the cells were lysed on ice with an ultrasonic disintegrator. The whole cells and the cell debris were centrifuged off at 3000 g for 7 min. The supernatant was again centrifuged at 50,000 g for 20 min at 4° C. A membrane pellet sedimented and was resuspended in 2 ml of phosphate buffer (composition see above) with […] by means of an Ultra-Turrax mixer. […] Aliquots with an approximate protein concentration of 5 mg/ml were stored at −70° C. until use.
Control incubations were performed in parallel with 5 μl DMSO without urea. The reaction was started by adding 50 μl of a membrane suspension diluted 1 to 5 in phosphate buffer (0.8 to 1 mg of protein per ml). After thoroughly mixing the components, the mixture was incubated at 37° C. for 30 min.
The steroids were extracted with 1 ml of EtOAc. […] After the centrifugation, 800 μl of the organic phase was removed, placed into a new vessel and evaporated to dryness. The samples were dissolved in 50 μl of a water-methanol mixture (1:1) and analyzed by HPLC. The substrate conversion was calculated from the ratio of the areas of the product peaks (17α-hydroxyprogesterone and 16α-hydroxyprogesterone) to that of the substrate peak. The activity of the inhibitors was calculated from the reduced substrate conversion after the addition of inhibitors in accordance with the following formula: […]

Test [2] has as its target T2, human CYP11B1 (Homo sapiens, UniProt P15538).
T2 construct: expressed in transfected cells; host or cells: V79 MZh11B1 (Chinese hamster lung fibroblasts)
T2 sequence (P15538 25-503): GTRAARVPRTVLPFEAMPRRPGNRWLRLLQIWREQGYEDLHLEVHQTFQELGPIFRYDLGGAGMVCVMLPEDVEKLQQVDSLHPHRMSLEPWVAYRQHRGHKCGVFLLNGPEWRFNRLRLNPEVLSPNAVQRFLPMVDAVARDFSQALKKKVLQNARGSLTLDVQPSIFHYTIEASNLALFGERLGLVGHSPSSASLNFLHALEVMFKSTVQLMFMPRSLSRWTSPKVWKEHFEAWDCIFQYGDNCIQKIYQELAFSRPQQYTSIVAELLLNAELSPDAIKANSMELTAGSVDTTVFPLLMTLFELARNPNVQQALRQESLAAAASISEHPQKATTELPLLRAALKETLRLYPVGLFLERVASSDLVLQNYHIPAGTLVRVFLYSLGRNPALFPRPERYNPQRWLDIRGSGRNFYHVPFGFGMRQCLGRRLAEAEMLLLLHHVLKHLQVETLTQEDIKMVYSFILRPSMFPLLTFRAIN
Kind of test: V79 MZh 11B1 cells inhibition test. The class given is cell-based. The protocol: Both cell lines were cultured in DMEM^+ containing […] and the antibiotics penicillin and streptomycin (10%) for protection from bacterial contamination. The cells were passaged every 2-3 days after treatment with trypsin/EDTA because the doubling rate was 1-2 days depending on the number of cells. […] When there was further need, freshly thawed cells were employed.
Thereafter, the plate was stored at 37° C. and […] in a CO2 incubator. […] Controls without inhibitor were treated in the same way. The enzyme reactions were quenched by extracting the supernatant with 500 μl of EtOAc. The samples were centrifuged (10,000 g, 2 min), the solvent was removed and evaporated.
It was calculated by determining the percent inhibition for at least 3 different inhibitor concentrations, which must all be in the linear range of the sigmoidal IC50 curve (log C/% inhibition).
The calculation was effected by linear regression. The values determined were used only if they formed a straight line with a reliability of […].
The plate was developed twice with the mobile solvent chloroform:methanol:water (300:20:1). Unlabeled 11-deoxycorticosterone and corticosterone were applied as a reference for the CYP11B1 reaction. For the CYP11B2 reaction, 11-deoxycorticosterone, corticosterone, 18-hydroxycorticosterone and aldosterone were used as references. The detection of the unlabeled references was effected at 260 nm. Subsequently, imaging plates (BAS MS2340, for ^14C samples, Raytest, Straubenhardt, Germany) were exposed to the HPTLC plates for 48 h. The imaging plates were scanned with the phosphoimager system Fuji FLA 3000 (Raytest, Straubenhardt, Germany), and the steroids were quantified.

[3] abbreviates: hamster fibroblasts which express human CYP11B1, deoxycorticosterone substrate 100 nM, read-out: IC50 V79 11B1 hCYP11B1.

Consider “5-[(E)-(6-Chloro-3,4-dihydronaphth-1(2H)-ylidene)methyl]-1H-imidazolium chloride [Compound 46a]”, for which, in test [1], the “% Inhibition human CYP17” value came to 24%.

Regarding “5-[(Z)-3,4-Dihydronaphth-1(2H)-ylidenemethyl]-1H-imidazolium oxalate [Compound 41b]”, the “% Inhibition human CYP17” value in test [1] was determined as 13%.

The IC50 is the point on the concentration scale where inhibition reaches its midpoint. As for “5-[(Z)-(5-Bromo-2,3-dihydro-1H-indene-1-ylidene)methyl]-1H-imidazolium oxalate [Compound 49b]”, the IC50 in test [2] (setting [3]) stood at 23.5 nM. For the same compound, in test [1], the “% Inhibition human CYP17” value amounted to 15%.

On to “5-[(Z)-(5-Chloro-2,3-dihydro-1H-indene-1-ylidene)methyl]-1H-imidazolium oxalate [Compound 48b]”, for which, in test [1], the “% Inhibition human CYP17” value was 26%.

In general, inhibition refers to the relative decrease from the control value, in per cent. Turning to `C(=C1/CCc2ccccc21)/c1cccnc1` [Compound 1a, 3-[(E)-2,3-Dihydro-1H-indane-1-ylidenemethyl]pyridine Hydrochloride], the IC50 in test [2] (setting [3]) turned out to be 888 nM. Moreover, the inhibition at 2.5 µM in test [1] worked out at 14%.

Consider `C(=C1\CCc2ccccc21)/c1cccnc1.Cl` [Compound 1b, 3-[(Z)-2,3-Dihydro-1H-indane-1-ylidenemethyl]pyridine Hydrochloride], for which, in test [2] (setting [3]), the IC50 turned out to be 86.6 nM. Besides, the “% Inhibition human CYP17” value in test [1] turned out to be 33%.

Consider `C(=C1\CCc2ccccc21)/c1ccncc1` [Compound 2b, 4-[(Z)-2,3-Dihydro-1H-indane-1-ylidenemethyl]pyridine oxalate], for which, in test [2] (setting [3]), the IC50 was 1320 nM. For the same compound, the inhibition at 2.5 µM in test [1] was found to be 18%.

With `C(=C1/CCCc2ccccc21)/c1cccnc1.Cl` [Compound 3a, 3-[(E)-3,4-Dihydronaphthalene-1(2H)-ylidenemethyl]pyridine Hydrochloride], the IC50 in test [2] (setting [3]) was found to be 715 nM. The inhibition at 2.5 µM in test [1] turned out to be 9%.

In the case of `C(=C1\CCCc2ccccc21)/c1cccnc1.Cl` [Compound 3b, 3-[(Z)-3,4-Dihydronaphthalene-1(2H)-ylidenemethyl]pyridine Hydrochloride], in test [2] (setting [3]), the IC50 was found to be 1420 nM. Further, the inhibition at 2.5 µM in test [1] turned out to be 24%.

For `Fc1ccc2c(c1)CC/C2=C\c1cccnc1` [Compound 5a, 3-[(E)-(5-Fluoro-2,3-dihydro-1H-indane-1-ylidene)methyl]pyridine Hydrochloride], the IC50 in test [2] (setting [3]) was 311 nM. Also, in test [1], the inhibition at 2.5 µM came to 17%.

Turning to `Fc1ccc2c(c1)CC/C2=C/c1cccnc1` [Compound 5b, 3-[(Z)-(5-Fluoro-2,3-dihydro-1H-indane-1-ylidene)methyl]pyridine Hydrochloride], the IC50 in test [2] (Table 7: preincubation 1 h, DOC 100 nM, incubation 140 min, read-out: V79MZh11B1 CYP11B1 DOC [IC50]) worked out at 125 nM; in test [2] (setting [3]), 125 nM. The inhibition at 2.5 µM in test [1] stood at 16%.

Turning to `Fc1ccc2c(c1)CC/C2=C\c1ccncc1` [Compound 6a, 4-[(E)-(5-Fluoro-2,3-dihydro-1H-indane-1-ylidene)methyl]pyridine Hydrochloride], the IC50 in test [2] (setting [3]) was 380 nM. Further, in test [1], the inhibition at 2.5 µM came to 15%.

Turning to `Fc1ccc2c(c1)CC/C2=C/c1ccncc1` [Compound 6b, 4-[(Z)-(5-Fluoro-2,3-dihydro-1H-indane-1-ylidene)methyl]pyridine Hydrochloride], the IC50 in test [2] (setting [3]) is 257 nM. For the same compound, in test [1], the inhibition at 2.5 µM amounted to 29%.

In the case of `Clc1ccc2c(c1)CC/C2=C\c1cccnc1` [Compound 7a, 3-[(E)-(5-Chloro-2.3-dihydro-1H-indane-1-ylidene)methyl]pyridine Hydrochloride], in test [2] (setting [3]), the IC50 was 1470 nM. Moreover, the inhibition at 2.5 µM in test [1] was 26%.

For the compound `Clc1ccc2c(c1)CC/C2=C/c1cccnc1` [Compound 7b, 3-[(Z)-(5-Chloro-2,3-dihydro-1H-indane-1-ylidene)methyl]pyridine Hydrochloride], in test [2] (setting [3]), the IC50 stood at 270 nM. The inhibition at 2.5 µM in test [1] was determined as 28%.

For the compound `Clc1ccc2c(c1)CC/C2=C\c1ccncc1` [Compound 8a, 4-[(E)-(5-Chloro-2,3-dihydro-1H-indane-1-ylidene)methyl]pyridine Hydrochloride], in test [2] (setting [3]), the IC50 worked out at 243 nM. In addition, the inhibition at 2.5 µM in test [1] was 18%.

Regarding `Brc1ccc2c(c1)CC/C2=C\c1cccnc1` [Compound 9a, 3-[(E)-(5-Bromo-2,3-dihydro-1H-indane-1-ylidene)methyl]pyridine Hydrochloride], the IC50 in test [2] (setting [3]) turned out to be 1940 nM. For the same compound, in test [1], the inhibition at 2.5 µM came out at 16%.

In the case of `Brc1ccc2c(c1)CC/C2=C/c1cccnc1` [Compound 9b, 3-[(Z)-(5-Bromo-2,3-dihydro-1H-indane-1-ylidene)methyl]pyridine Hydrochloride], in test [2] (setting [3]), the IC50 worked out at 320 nM. For the same compound, the inhibition at 2.5 µM in test [1] was 24%.

Consider `Brc1ccc2c(c1)CC/C2=C\c1ccncc1` [Compound 10a, 4-[(E)-(5-Bromo-2,3-dihydro-1H-indane-1-ylidene)methyl]pyridine Hydrochloride], for which the IC50 in test [2] (setting [3]) was found to be 948 nM. The inhibition at 2.5 µM in test [1] turned out to be 24%.

For the compound `C(=C1/CCCc2ccccc21)/c1cnc[nH]1` [Compound 41a, 5-[(E)-3,4-Dihydronaphth-1(2H)-ylidenemethyl]-1H-imidazole], the inhibition at 2.5 µM in test [1] turned out to be 13%.

As to `Cl.Clc1ccc2c(c1)CC/C2=C\c1cnc[nH]1` [Compound 48a, 5-[(E)-(5-Chloro-2,3-dihydro-1H-indene-1-ylidene)methyl]-1H-imidazolium chloride], in test [1], the inhibition at 2.5 µM is 37%.

Turning to `Brc1ccc2c(c1)CC/C2=C\c1cnc[nH]1.Cl` [Compound 49a, 5-[(E)-(5-Bromo-2,3-dihydro-1H-indene-1-ylidene)methyl]-1H-imidazolium chloride], the inhibition at 2.5 µM in test [1] turned out to be 13%.

For the origin of these results see patent US20090105278A1, “Selective inhibitors of human corticosteroid syntheses” (Universitat Des Saarlandes, priority 2004, published 2009).
